Test results published in patent US11453703B2, “Heterotandem bicyclic peptide complexes” (BicycleTX Limited, priority 2018, dated 2022).
Like-named read-outs stand apart in the source and are kept apart here. Starred links: 1 amine or outer side, 2 acyl side, 3 side chain; linkers in the order of their positions; H or OH if unused. Positions of bridges follow the written chain, without caps; N, C: chain ends. Non-standard residues stand in square brackets, D forms with d. Chains are numbered I, II in the order given. X1 = O=C(CCc1cn(CCOCCOCCOCCOCCOCCOCCOCCOCCOCCOCCOCCOCCC(=O)[*:2])nn1)NCCC(=O)[*:1]; TATA = O=C(CC[*:1])N1CN(C(=O)CC[*:2])CN(C(=O)CC[*:3])C1; 1Nal = N[C@@H](Cc1cccc2ccccc12)C(=O)O; Hyp = O=C(O)[C@@H]1C[C@@H](O)CN1; hArg = N=C(N)NCCCC[C@H](N)C(=O)O; tBuAla = CC(C)(C)C[C@H](N)C(=O)O; Nle = CCCC[C@H](N)C(=O)O; Sar = CNCC(=O)O

Target: CD137 (Homo sapiens, UniProt Q07011)
Assay: CD137 reporter assay, co-culture with Nectin-4 tumour cells;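 further: jurkat reporter cells co-cultured with tumour cells and test article for 6 h, luminescence signal relative to Jurkat plus tumour cells lacking test article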
Assay type: cell-based
Parameters: host or cells: Jurkat reporter cells
[1] = tumour target Nectin4, co-culture with H1376, 6 h

CD137, sequence (Q07011 24-255): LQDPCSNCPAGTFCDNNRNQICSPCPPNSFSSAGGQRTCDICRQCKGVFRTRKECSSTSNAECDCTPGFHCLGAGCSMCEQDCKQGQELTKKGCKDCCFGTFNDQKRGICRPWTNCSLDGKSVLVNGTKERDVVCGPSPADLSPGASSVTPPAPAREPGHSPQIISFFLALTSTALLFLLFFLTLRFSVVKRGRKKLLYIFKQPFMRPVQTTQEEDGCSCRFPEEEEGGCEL
Procedure: Culture medium referred to as R1 media is prepared by adding 1% FBS to RPMI-1640 (component of Promega kit CS196005). Serial dilutions of test articles in R1 are prepared in a sterile 96 well-plate. Use 25 μl per well of test articles or R1 (as a background control) to designated wells in white cell culture plate. Tumour cells* are harvested and resuspended at a concentration of 400,000 cells/mL in R1 media. Twenty five (25) μL/well tumour cells are used in white cell culture plate. Jurkat cells (Promega kit CS196005, 0.5 mL) are thawed in the water bath and then added to 5 ml pre-warmed R1 medium. Twenty five (25) μL/well Jurkat cells are used in white cell culture plate. Incubate the cells and test articles for 6h at 37° C., 5% CO2. At the end of 6 h, add 75 μl/well Bio-Glo™ (Promega) and incubate for 10 min before reading luminescence in a plate reader (Clariostar, BMG). The fold change relative to cells (Jurkat cells+Cell line used in co-culture) is calculated and plotted in GraphPad Prism as log(agonist) vs response to determine EC50 (nM) and Fold Induction over background (Max)

Row | Fold Induction over Background [fold] | EC50 (tumour target Nectin4, co-culture with H1376, 6 h, read-out: EC50) [nM] | Compound | EC50 [nM] | Fold Induction over Background [1] [fold]
1 |  |  | CCCC[C@@H]1NC(=O)[C@H](Cc2ccc(O)cc2)NC(=O)[C@@H]2CCCN2C(=O)[C@H](CC(=O)O)NC(=O)[C@H](C)NC(=O)[C@H](Cc2ccccc2)NC(=O)[C@@H]2CSCCC(=O)N3CN(CN(C3)C(=O)CCSC[C@@H](C(=O)N[C@@H](C)C(N)=O)NC1=O)C(=O)CCSC[C@H](NC(C)=O)C(=O)N[C@@H](CC(C)(C)C)C(=O)N1CCC[C@H]1C(=O)N[C@@H](CCC(=O)O)C(=O)N[C@H](CCCCNC(=O)CCc1cn(CC(=O)N[C@H]3CSCCC(=O)N4CN5CN(C4)C(=O)CCSC[C@H](NC(=O)[C@@H](CC(=O)O)NC(=O)[C@H](Cc4cccc6ccccc46)NC(=O)[C@@H]4CCCN4C3=O)C(=O)N[C@@H](CCSC)C(=O)N[C@@H](CCCCNC(=N)N)C(=O)N[C@@H](CC(=O)O)C(=O)N[C@@H](Cc3c[nH]c4ccccc34)C(=O)N[C@@H](CO)C(=O)N[C@@H]([C@@H](C)O)C(=O)N3CCC[C@H]3C(=O)N3C[C@H](O)C[C@H]3C(=O)N[C@@H](Cc3c[nH]c4ccccc34)C(=O)N[C@H](C(N)=O)CSCCC5=O)nn1)C(=O)N1CCC[C@H]1C(=O)N[C@@H](Cc1ccc(O)cc1)C(=O)N2 [BCY11374] | 0.091 | 72
2 | 74 | 0.16 | CCCC[C@@H]1NC(=O)[C@H](Cc2ccc(O)cc2)NC(=O)[C@@H]2CCCN2C(=O)[C@H](CC(=O)O)NC(=O)[C@H](C)NC(=O)[C@H](Cc2ccccc2)NC(=O)[C@@H]2CSCCC(=O)N3CN(CN(C3)C(=O)CCSC[C@@H](C(=O)N[C@@H](C)C(N)=O)NC1=O)C(=O)CCSC[C@H](NC(C)=O)C(=O)N[C@@H](CC(C)(C)C)C(=O)N1CCC[C@H]1C(=O)N[C@@H](CCCCNC(=O)CCc1cn(CC(=O)N[C@H]3CSCCC(=O)N4CN5CN(C4)C(=O)CCSC[C@H](NC(=O)[C@@H](CC(=O)O)NC(=O)[C@H](Cc4cccc6ccccc46)NC(=O)[C@@H]4CCCN4C3=O)C(=O)N[C@@H](CCSC)C(=O)N[C@@H](CCCCNC(=N)N)C(=O)N[C@@H](CC(=O)O)C(=O)N[C@@H](Cc3c[nH]c4ccccc34)C(=O)N[C@@H](CO)C(=O)N[C@@H]([C@@H](C)O)C(=O)N3CCC[C@H]3C(=O)N3C[C@H](O)C[C@H]3C(=O)N[C@@H](Cc3c[nH]c4ccccc34)C(=O)N[C@H](C(N)=O)CSCCC5=O)nn1)C(=O)N[C@H](C)C(=O)N1CCC[C@H]1C(=O)N[C@@H](Cc1ccc(O)cc1)C(=O)N2 [BCY11373] |  | 
3 |  |  | I: [Sar][Sar][Sar][Sar][Sar][Sar][Sar][Sar][Sar][Sar]CP[1Nal][dD]CM[hArg]DWSTP[Hyp]WC-NH2 / II: Ac-C[tBuAla]PK[dA]PYCFADPY[Nle]CA-NH2 (linker I:11-I:15-I:25, II:1-II:8-II:15 via TATA; linker I:N-II:4 via X1) [BCY10567] |  | 45
4 |  |  | CCCC[C@@H]1NC(=O)[C@H](Cc2ccc(O)cc2)NC(=O)[C@@H]2CCCN2C(=O)[C@H](CC(=O)O)NC(=O)[C@H](C)NC(=O)[C@H](Cc2ccccc2)NC(=O)[C@@H]2CSCCC(=O)N3CN(CN(C3)C(=O)CCSC[C@@H](C(=O)N[C@@H](CNC(=O)CCOCCOCCOCCOCCOCCOCCOCCOCCOCCOCCOCCOCCOCCOCCOCCOCCOCCOCCOCCOCCOCCOCCOCCOCCOCCC(=O)N[C@H]3CSCCC(=O)N4CN5CN(C4)C(=O)CCSC[C@H](NC(=O)[C@@H](CC(=O)O)NC(=O)[C@H](Cc4cccc6ccccc46)NC(=O)[C@@H]4CCCN4C3=O)C(=O)N[C@@H](CCSC)C(=O)N[C@@H](CCCCNC(=N)N)C(=O)N[C@@H](CC(=O)O)C(=O)N[C@@H](Cc3c[nH]c4ccccc34)C(=O)N[C@@H](CO)C(=O)N[C@@H]([C@@H](C)O)C(=O)N3CCC[C@H]3C(=O)N3C[C@H](O)C[C@H]3C(=O)N[C@@H](Cc3c[nH]c4ccccc34)C(=O)N[C@H](C(N)=O)CSCCC5=O)C(N)=O)NC1=O)C(=O)CCSC[C@H](NC(=O)[C@H](C)NC(C)=O)C(=O)N[C@@H]([C@@H](C)CC)C(=O)N[C@@H](CCC(=O)O)C(=O)N[C@@H](CCC(=O)O)C(=O)NCC(=O)N[C@@H](CCC(N)=O)C(=O)N[C@@H](Cc1ccc(O)cc1)C(=O)N2 [BCY9759] |  | 15
5 |  |  | CCCC[C@@H]1NC(=O)[C@H](Cc2ccc(O)cc2)NC(=O)[C@@H]2CCCN2C(=O)[C@H](CC(=O)O)NC(=O)[C@H](C)NC(=O)[C@H](Cc2ccccc2)NC(=O)[C@@H]2CSCCC(=O)N3CN(CN(C3)C(=O)CCSC[C@@H](C(=O)N[C@@H](CNC(=O)CCc3cn(CCOCCOCCOCCOCCOCCOCCOCCOCCOCCOCCOCCOCCC(=O)NCCC(=O)N(C)CC(=O)N(C)CC(=O)N(C)CC(=O)N(C)CC(=O)N(C)CC(=O)N(C)CC(=O)N(C)CC(=O)N(C)CC(=O)N(C)CC(=O)N(C)CC(=O)NCCCC[C@H]4NC(=O)[C@H](Cc5cccc6ccccc56)NC(=O)[C@@H]5CCCN5C(=O)[C@@H](NC(C)=O)CSCCC(=O)N5CN6CN(C5)C(=O)CCSC[C@H](NC4=O)C(=O)N[C@@H](CCSC)C(=O)N[C@@H](CCCCNC(=N)N)C(=O)N[C@@H](CC(=O)O)C(=O)N[C@@H](Cc4c[nH]c5ccccc45)C(=O)N[C@@H](CO)C(=O)N[C@@H]([C@@H](C)O)C(=O)N4CCC[C@H]4C(=O)N4C[C@H](O)C[C@H]4C(=O)N[C@@H](Cc4c[nH]c5ccccc45)C(=O)N[C@H](C(N)=O)CSCCC6=O)nn3)C(N)=O)NC1=O)C(=O)CCSC[C@H](NC(C)=O)C(=O)N[C@@H](CC(C)(C)C)C(=O)N1CCC[C@H]1C(=O)N[C@@H](CCC(=O)O)C(=O)N[C@H](C)C(=O)N1CCC[C@H]1C(=O)N[C@@H](Cc1ccc(O)cc1)C(=O)N2 [BCY10917] |  | 54
6 |  |  | CCCC[C@@H]1NC(=O)[C@H](Cc2ccc(O)cc2)NC(=O)[C@@H]2CCCN2C(=O)[C@H](CC(=O)O)NC(=O)[C@H](C)NC(=O)[C@H](Cc2ccccc2)NC(=O)[C@@H]2CSCCC(=O)N3CN(CN(C3)C(=O)CCSC[C@@H](C(=O)N[C@@H](CNC(=O)Cn3cc(CCC(=O)NCCC(=O)N(C)CC(=O)N(C)CC(=O)N(C)CC(=O)N(C)CC(=O)N(C)CC(=O)N(C)CC(=O)N(C)CC(=O)N(C)CC(=O)N(C)CC(=O)N(C)CC(=O)N[C@H]4CSCCC(=O)N5CN6CN(C5)C(=O)CCSC[C@H](NC(=O)[C@@H](CC(=O)O)NC(=O)[C@H](Cc5cccc7ccccc57)NC(=O)[C@@H]5CCCN5C4=O)C(=O)N[C@@H](CCSC)C(=O)N[C@@H](CCCCNC(=N)N)C(=O)N[C@@H](CC(=O)O)C(=O)N[C@@H](Cc4c[nH]c5ccccc45)C(=O)N[C@@H](CO)C(=O)N[C@@H]([C@@H](C)O)C(=O)N4CCC[C@H]4C(=O)N4C[C@H](O)C[C@H]4C(=O)N[C@@H](Cc4c[nH]c5ccccc45)C(=O)N[C@H](C(N)=O)CSCCC6=O)nn3)C(N)=O)NC1=O)C(=O)CCSC[C@H](NC(C)=O)C(=O)N[C@@H](CC(C)(C)C)C(=O)N1CCC[C@H]1C(=O)N[C@@H](CCC(=O)O)C(=O)N[C@H](C)C(=O)N1CCC[C@H]1C(=O)N[C@@H](Cc1ccc(O)cc1)C(=O)N2 [BCY10578] |  | 58
7 |  |  | I: [Sar][Sar][Sar][Sar][Sar][Sar][Sar][Sar][Sar][Sar]CP[1Nal][dD]CM[hArg]DWSTP[Hyp]WC-NH2 / II: Ac-C[tBuAla]PE[dK]PYCFADPY[Nle]CA-NH2 (linker I:11-I:15-I:25, II:1-II:8-II:15 via TATA; linker I:N-II:5 via X1) [BCY10569] | 1.2 | 52
